Each structure is given as a SMILES string. pIC50: −log10 of the molar value. Where two headings read alike, the source gives them in different places.

This is an account of results in article PMC11240924, “Isolation, Identification, and Biological Activities of a New Chlorin e6 Derivative” (International Journal of Molecular Sciences, 2024).

One series deals with MIA PaCa-2. The series is described as follows: MTT cytotoxicity (PDT and dark), MIA PaCa-2. Type of series: cell-based, Human. To be noted: Homo sapiens, light or radiation study, 3 h exposure, 660 nm laser 0.5 J/cm^2, MTT after 24 h. An excerpt: (§1) B16F10 (KCLB80008), MIA PaCa-2 (KCLB21420), PANC-1 (KCLB21469), HT-29 (KCLB30038), AsPC-1 (KCLB21682), and Raw 264.7 (KCLB40071) cells were procured from the Korean Cell Line Bank (KCLB, Seoul, Republic of Korea). AsPC-1 and RAW264.7 were thawed and maintained in RPMI-1640 media (Life Technologies corporation, Carlsbad, CA, USA) supplemented with 10% fetal bovine serum (Life Technologies corporation, USA) and 1% penicillin and streptomycin (Life Technologies corporation, USA), while MIA PaCa-2, PANC-1, HT-29, and B16F10 cell lines were cultured in DMEM (Life technologies corporation, USA) containing 10% fetal bovine serum and 1% penicillin and streptomycin. All the cells were cultured at 37 °C in a 5% CO2 incubator.
(§2) After seeding B16F10 or MIA PaCa-2 at a density of 5 × 10^3 cells/well and PANC-1, HT-29, or AsPC-1 at a density of 1 × 10^4 cells/well in 96-well plates, the cells were incubated overnight at 37 °C in a CO2 incubator. The cells were exposed to different doses of either chlorin e6 or rhodin g7 7^1-ethyl ester (0, 2.5, 5, 10, 20, 40, and 80 µM) for 3 h. After the incubation, the cells were either subjected to a 660 nm laser with a power density of 50 mW (0.5 J/cm^2) or not and were further incubated for 24 h at 37 °C. Moreover, the MTT assay was used to analyze the cell viability. The absorbance values of 540 nm were then measured using a microplate reader (Multiskan GO, Thermo Fisher Scientific, Oy, Ratastie 2, FI-01620 Vantaa, Finland).

Series [1] is described as follows: MTT cytotoxicity (PDT and dark), MIA PaCa-2. Type of series: cell-based, Human. Conditions: human, MIA PaCa-2 cells, no illumination, MTT after 24 h.
Excerpt: as §1, §2

Series [2] can be described thus: MTT cytotoxicity, statements over all cell lines of the panel. It is filed as cell-based. To be noted: mouse (B16F10), human (MIA PaCa-2, PANC-1, HT-29, AsPC-1), B16F10, MIA PaCa-2, PANC-1, HT-29 and AsPC-1 cells, read-out: cellular viability.
Excerpt: as §1
as §2, with “The cells were exposed to different doses of either chlorin e6 or rhodin g7 7^1-ethyl ester (0, 2.5, 5, 10, 20, 40, and 80 µM) for 3 h.” left out

Series [3] relates to B16F10, MIA PaCa-2, PANC-1, HT-29, AsPC-1. The series is described as above. Type of series: cell-based.
Excerpt: as §1
as §2, with “The cells were exposed to different doses of either chlorin e6 or rhodin g7 7^1-ethyl ester (0, 2.5, 5, 10, 20, 40, and 80 µM) for 3 h.” left out

A further series concerns BV2 cells. As to the kind of experiment: Cellular uptake (plate reader and FOBI), BV2. It is filed as cell-based. To be noted: 3 h; for fluorescence intensity of treated cells compared to control (uptake): BV2, 100 μΜ. The protocol:
(§3) A quantitly of 5 × 10^5 of MIA PaCa-2 and 2 × 10^5 of BV2 cells per well were seeded in a 6-well plate and were treated with or without chlorin e6 or rhodin g7 7^1-ethyl ester (10 and 100 μΜ). After 3 h, the cells were harvested and washed twice with 1 × phosphate buffered saline (DPBS) to remove the remaining chlorin e6 or rhodin g7 7^1-ethyl ester from the culture media and cell surfaces. The cells from each well were resuspended in 1 mL of 1 × DPBS and measured using FOBI and a plate reader. chlorin e6 or rhodin g7 7^1-ethyl ester-treated cells were divided into triplicate wells of a black-walled 96-well plate, each containing 100 µL. The measurement was taken immediately after aliquoting using a Spark Multimode Microplate Reader (Tecan Trading AG, Männedorf, Switzerland) for spectroscopy. The fluorescence was measured using excitation and emission peaks of 405 nm and 500–800 nm. For the FOBI analysis, 700 µL of chlorin e6 or rhodin g7 7^1-ethyl ester-treated cells was added to the e-tubes, and bioimaging was performed immediately using the fluorescence-labeled organism bioimaging instrument (FOBI) system (Cellgentek, Daejeon, Republic of Korea). Each image was exposed for 0.3 s, with a 405 nm wavelength LED, and an emmission light of 502 nm. The results were further quantitatively measured using the “NEOimage FOBI” software.

Series [4] is described as follows: MTT cytotoxicity (PDT and dark), RAW264.7 normal cell line. Conditions: mouse, RAW264.7 cells (normal macrophage), RAW264.7 normal macrophage. Type of series: cell-based, Murine.
Excerpt: as §1, §2

Series [5] in a line: MTT cytotoxicity (PDT and dark), AsPC-1. Type of series: cell-based, Human. Conditions: human, AsPC-1 cells, no illumination, MTT after 24 h.
Excerpt: as §1, §2

Series [6] is described as follows: Singlet oxygen photogeneration (DPBF quenching). To be noted: for change of DPBF absorbance at higher doses: 5 and 10 µM. The protocol: Singlet oxygen photoregeneration was carried out using 1, 3-diphenylisobenzofuran (DPBF) in DMSO. DPBF is a selective ^1O2 acceptor that reacts with ^1O2. The sample solutions of DPBF (50 μM) which contained DPBF only (50 μM, as a control), MB (1, 5, and 10 μM), chlorin e6 (1, 5, and 10 μM), and rhodin g7 7^1-ethyl ester (1, 5, and 10 μM) were prepared under dark conditions. All of the samples were placed in a 96-well plate, which was covered with aluminum foil. The samples were then irradiated (660 nm, 50 mW, 0.5 J/cm^2) for 1 min and 40 s, and after irradiation, the visible spectra of the sample solutions were measured spectrophotometrically. The normalized absorbance of DPBF at 418 nm was measured in these samples. The ^1O2 photo-generation activities of MB, chlorin e6, and rhodin g7 7^1-ethyl ester can be compared with the different absorbance decay of each sample relative to the DPBF control sample.

The test system of a further series is MIA PaCa-2 cells. The series is described as follows: Cellular uptake (plate reader and FOBI), MIA PaCa-2. Type of series: cell-based, Human. To be noted: 3 h; for fluorescence intensity of treated cells compared to control (uptake): MIA PaCa-2, 100 μΜ. Here is the method: as §3
Setting [7] is: complete absence of illumination, read-out: IC50 values dark toxicity, range over cell lines.
[8] abbreviates: light or radiation study, PDT, light dose 0.5 J/cm^2, five cancer cell lines, read-out: IC50 values post illumination, range over cancer cell lines.
Setting [9] is: 660 nm laser 0.5 J/cm^2, MTT after 24 h, read-out: IC50, PDT cytotoxicity.
The mark [10] stands for this setting: no illumination, MTT after 24 h, read-out: IC50, dark cytotoxicity.

In general, pIC50 refers to −log10 of the IC50, conventionally taken in molar units. For orientation: viability means the share of living cells, or the viability signal relative to a control. Consider `C=Cc1c(C)c2cc3nc(c(CC(=O)O)c4[nH]c(cc5nc(cc1[nH]2)C(C)=C5CC)c(C)c4C(=O)O)[C@@H](CCC(=O)O)[C@@H]3C` [chlorin e6], for which the pIC50 in the series on MIA PaCa-2 was 4.63; in series [1], 3.37; in series [3] (setting [7]), 3.25 to 3.60; in series [3] (setting [8]), 4.47 to 4.75; in series [4] (setting [9]), 4.34; in series [4] (setting [10]) it was 3.34. In series [5], this compound gave a pIC50 of 3.61. For the same compound, the viability is at least 90% in [2] (chlorin e6 dark, concentrations as high as 169.2 µM) and below 10% in series [2] (chlorin e6 dark, concentrations up to 729.4 µM, all cell lines). The compound further gave a cellular viability in series [3] (chlorin e6-PDT, concentrations greater than 59.8 µM, all cell lines) of 10%. In addition, in series [3] (chlorin e6-PDT, dose of 7.8 µM, all cell lines, vs vehicle-treated control), the viability at 7.8 µM is at least 90%. Besides, the “fluorescence intensity of treated cells compared to control (uptake)” value with BV2 cells and in the series with MIA PaCa-2 cells was “significant increase in fluorescence intensity” each time. Further, the “change of DPBF absorbance at higher doses” value in [6] is on record as “large increase in DPBF absorbance”.
Take `C=Cc1c(C)c2cc3nc(c(CC(=O)O)c4[nH]c(cc5nc(cc1[nH]2)C(C(=O)OCC)=C5CC)c(C)c4C(=O)O)[C@@H](CCC(=O)O)[C@@H]3C` [rhodin g7 7^1-ethyl ester]: the pIC50 with MIA PaCa-2 is 5.12; in [1], 3.79; in series [3] (setting [7]) it was 3.41 to 3.79; in series [3] (setting [8]), 4.31 to 5.08; in [4] (setting [9]), 4.26; in [4] (setting [10]), 3.33. Further, the pIC50 in [5] is 3.40. Also, the viability in [2] (rhodin g7 7^1-ethyl ester dark, concentrations as high as 37.4 µM) was at least 90%; in series [2] (rhodin g7 7^1-ethyl ester dark, doses as high as 660 µM, all cell lines) it was below 10%. Further, the “higher cytotoxicity compared to chlorin e6” value in series [3] (laser 0.5 J/cm^2, majority of the cancer cell lines) is reported as 2 fold. In addition, in [3] (rhodin g7 7^1-ethyl ester PDT, concentrations higher than 53.7 µM, all cell lines), the cellular viability turned out to be 10%. Moreover, the “fluorescence intensity of treated cells compared to control (uptake)” value in the series with BV2 cells and with MIA PaCa-2 cells was “significant increase in fluorescence intensity” in each case. The “fluorescence intensity relative to chlorin e6 (uptake)” value with BV2 cells (BV2, FOBI system, 10 μΜ) amounted to 1.1 times; in the series on BV2 cells (BV2, FOBI system, 100 μΜ), 1.4 times; in the series with BV2 cells (BV2, plate reader, 10 μΜ), 2.2 times; in the series with BV2 cells (BV2, plate reader, 100 μΜ), 2 times; with MIA PaCa-2 cells (MIA PaCa-2, FOBI system, 10 μΜ) it was 1.02 times; with MIA PaCa-2 cells (MIA PaCa-2, FOBI system, 100 μΜ), 1.3 times. Moreover, the “fluorescence intensity relative to chlorin e6 (uptake)” value worked out at 3 times in the series on MIA PaCa-2 cells (MIA PaCa-2, plate reader, 10 μΜ) and 1.4 times with MIA PaCa-2 cells (MIA PaCa-2, plate reader, 100 μΜ). Also, the “more singlet oxygen compared to chlorin e6 alone” value in [6] (1 µM) was found to be 11.12%. Further, the “change of DPBF absorbance at higher doses” value in [6] is “large increase in DPBF absorbance”.
